Assay results: US11123033B2, “Molecular imaging method for evaluating liver regeneration capacity after ALPPS operation” (Harbin Medical University, priority 2019, dated 2021)

Tested on: rabbit VX2 liver cancer model
Test: 18F-FCH PET/CT imaging of residual liver after first-stage ALPPS
Type: in vivo
Details: ALPPS group
From the text: using incision and fragmentation method for liver cancer tissues; first inoculating a VX2 tumor strain into the muscle outside the rabbit hind leg after passage, wherein the tumor grows to a diameter of 2.0-3.0 cm after 3 weeks; removing the tumor in the muscle of the rabbit hind, eliminating the necrotic tissue, selecting fish-like tissue at the edge of the tumor, and using ophthalmic scissors to cut the tumor tissue into tissue blocks of 1 mm3, and washing repeatedly with saline and putting in a sterile Petri dish for use; putting an experimental rabbit into general anesthesia (method of anesthesia: intramuscular injection of Shutai 1 ml) and fixing it on an animal operating table in supine position; performing skin preparation, disinfection, and spreading sterile surgical scarves on a surgical region of a rabbit abdomen; injecting lidocaine into linea alba 1 cm below xiphoid process for local anesthesia, and making a midline incision of 4 to 5 cm in an upper abdomen and cutting abdominal wall layer by layer to expose a left lateral lobe of a liver; cutting a thicker liver lobe to form a hole passage of about 3 mm×3 mm, and implanting 3-5 tumors into it, then filling liver incision with gelatin sponge particles and pressing to stop bleeding, followed by suturing the incision and closing the abdomen.
two weeks after implanting the rabbit liver with the VX2 tumor strain, performing the first stage of ALPPS (i.e. associating liverpartition and portal vein ligation for staged hepatectomy) on tumor-bearing rabbits;
dividing the tumor-bearing rabbits randomly into an ALPPS group (the left branch of the portal vein of the liver is ligated, and the liver parenchyma is dissected along the ischemic line between the left middle lobe of the liver and the right lobe of the liver) and a Sham group (i.e., a sham operation group, no portal vein ligation and liver dissection); fasting rabbits in the ALPPS group for 12 hours before surgery, and fixing on the table in the supine position after general anesthesia, and performing skin preparation in the surgical region; injecting lidocaine into the left under the xiphoid process, opening the abdomen after anesthesia around the incision with an incision length of about 5-7 cm, exposing and separating the left branch of the portal vein and ligating with 4-0 surgical sutures, then after an ischemic line between the left and right liver is formed, using the surgical scissors to cut off the liver parenchyma along the ischemic line; filling the partition with gel sponge particles for hemostasis, after no obvious bleeding, closing the abdominal wall incision layer by layer, closing the abdominal cavity, and disinfecting the incision with iodophor. […]

C[N+](C)(C[18F])CCO [18 F-FCH, [18 F] fluoromethylcholine]
18 F-FCH intake in the residual liver (after 14 days): decreases slightly | 18 F-FCH uptake in the residual liver tissue (first 3 days after surgery): increases rapidly | 18 F-FCH uptake in the residual liver tissue (from the 1st postoperative day, PET/CT 1 h after 37 MBq/kg i.v.): significant high uptake | time at which 18 F-FCH uptake reaches a peak (residual liver, days after surgery): around 7 days
